These are literature values, as cited in US10995060B2, “Amorphous Trisodium Sacubitril Valsartan and process for its preparation” (priority 2016, dated 2021).

For data set [1] the following is noted: for Crystalline state / polymorph stability after exposure: 80° C at 0% RH and 75% RH for 3 days; for Result after loading of the sample at 80° C./0% RH / Result after loading of the sample at 80° C./75% RH: solid form by X-ray powder analysis, 3 days.
The conditions of data set [2]: crystal powder of Example 11 of WO 200206253.

Counter-ions that a name gives are not always drawn. Like-named read-outs stand apart in the source and are kept apart here.

With `CCOC(=O)[C@H](C)C[C@@H](Cc1ccc(-c2ccccc2)cc1)NC(=O)CCC(=O)O` [calcium salt of sacubitril], in data set [1], the “Crystalline state / polymorph stability after exposure” value is reported as “did not change”, the “Result after loading of the sample at 80° C./0% RH” value is recorded as “Crystalline sample(form I)I” and the “Result after loading of the sample at 80° C./75% RH” value (“Result … at 80° C./75% RH” for short) was “Crystalline sample(form I)I”.
As for `CCOC(=O)[C@H](C)C[C@@H](Cc1ccc(-c2ccccc2)cc1)NC(=O)CCC(=O)[O-].[Na+]` [sodium salt of sacubitril], in data set [1], the “Crystalline state / polymorph stability after exposure” value is on record as “high rate of polymorph instability”, the “Result after loading of the sample at 80° C./0% RH” value is recorded as “Semicrystalline phase” and the “Result … at 80° C./75% RH” value was “Amorphous sample”. In addition, in data set [1] (listed as sodium salt of Sacubitril), the “Result … at 80° C./75% RH” value was “completely amorphous”.
Take “Hydrate of valsartan disodium salt (2.4 ě 1.0 mole H2O)”: in data set [2], the Hygroscopicity result was “slightly hygroscopic”.
